Results on 13 molecules are retold here after US20240122179A1, “AUXINIC HERBICIDES AND METHODS OF USE THEREOF” (CORTEVA AGRISCIENCE LLC, priority 2021, published 2024).

Holding throughout (assay): Postemergence herbicide evaluation, percent reduction in plant size vs untreated control, 21 days after treatment
In one test the test system is Amaranthus rudis (AMATA). The class given is in vivo, Amaranthus rudis (tall water hemp). Conditions: Amaranthus tuberculatus, post-emergence, 504 h, AMATA, postemergence, read-out: Control/Injury; for pest or weed control at 140 g/ha: rate 140 g ae/ha; for pest or weed control at 280 g/ha: rate 280 g ae/ha. An outline of the steps:
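Greenhouse-grown tall waterhemp (25-28° C, 16 h light) at the 2-8 leaf stage, treated by track sprayer at 187 L/ha with compound at 140 or 280 g ae/ha in acetone/DMSO-based spray solution with crop oil and surfactant. 3-4 replicates per treatment, randomized complete block; plant size reduction versus untreated control measured 21 days after treatment.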

For test [1], the system named is Ambrosia artemisiifolia (AMBEL). The format is in vivo, Ambrosia artemisiifolia (common ragweed). Conditions: post-emergence, 504 h, AMBEL, postemergence, read-out: Control/Injury; for pest or weed control at 140 g/ha: rate 140 g ae/ha; for pest or weed control at 280 g/ha: rate 280 g ae/ha. The method in brief:
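Greenhouse-grown plants (25–28 °C, 16 h light) were sprayed postemergence at the 2–8 leaf stage with 140 or 280 g ae/ha in acetone/DMSO-based spray solution with crop oil and surfactant, at 187 L/ha by track sprayer. There were 3–4 replicates. Plant size was measured 21 days after treatment versus untreated plants.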

The subject of a further test is Kochia scoparia (KCHSC). The format is in vivo. Conditions: Bassia scoparia, post-emergence, 504 h, KCHSC, postemergence, percent reduction vs untreated, 21 days after treatment, read-out: Control/Injury; for pest or weed control at 140 g/ha: rate 140 g ae/ha; for pest or weed control at 280 g/ha: rate 280 g ae/ha. An outline of the steps:
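Greenhouse-grown plants (25-28 °C, 16 h light) at the 2 to 8 leaf stage were track-sprayed postemergence at 140 or 280 g ae/ha in acetone/DMSO-based spray solution with crop oil and surfactant, at 187 L/ha, in 3-4 randomized replicates.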

Test [2] has as its system Amaranthus palmeri (AMAPA). The class given is in vivo, Amaranthus palmeri (Palmer amaranth). Conditions: post-emergence, 504 h, AMAPA, postemergence, read-out: Control/Injury; for pest or weed control at 140 g/ha: rate 140 g ae/ha; for pest or weed control at 280 g/ha: rate 280 g ae/ha. The method in brief: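 Greenhouse-grown Palmer amaranth (25 to 28° C, 16 h light) sprayed postemergence at the 2 to 8 leaf stage with 140 or 280 g ae/ha in acetone/DMSO-based solution containing crop oil concentrate, 187 L/ha by track sprayer. Three to four replicates; plant size measured 21 days after treatment as percent reduction versus untreated control.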

Test [3] deals with Conyza canadensis (L.) (ERICA). The class given is in vivo, Conyza canadensis (L.) (Horseweed). Conditions: Erigeron canadensis, post-emergence, 504 h, ERICA, postemergence, read-out: Control/Injury; for pest or weed control at 140 g/ha: rate 140 g ae/ha; for pest or weed control at 280 g/ha: rate 280 g ae/ha. The method in brief: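 Horseshoe-weed (horseweed) seedlings at 2 to 8 leaf stage in greenhouse (25-28° C, 16 h light), sprayed postemergence at 140 or 280 g ae/ha in acetone/DMSO-based spray solution, 187 L/ha track-sprayer. Randomized complete block, 3-4 replicates; plant size measured 21 days after treatment as percent reduction vs untreated controls.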

Setting [4] is: percent reduction vs untreated, 21 days after treatment.

Structures are written as SMILES. Read-outs that look alike come from different tables or passages of the source.

For `COc1c(Cl)ccc(Cl)c1C(=O)n1cnc2ccccc21` [Compound A-115], the pest or weed control at 140 g/ha in the test on Amaranthus rudis (AMATA) turned out to be 15%; in test [1] it was 5%; in the test with Kochia scoparia (KCHSC) it was 8%; in test [2], 20%; in test [3], 3%. Also, the pest or weed control at 280 g/ha stood at 38% in the test on Amaranthus rudis (AMATA); 28% in test [1]; 13% in the test on Kochia scoparia (KCHSC); 38% in test [2]; 13% in test [3].
Turning to `CCc1nnc(OC(=O)c2c(Cl)ccc(Cl)c2OC)s1` [Compound A-119], the pest or weed control at 140 g/ha in the test on Amaranthus rudis (AMATA) worked out at 20%; in test [1] it was 5%; in the test with Kochia scoparia (KCHSC) it was 10%; in test [2], 8%; in test [3], 0%. Further, the pest or weed control at 280 g/ha with Amaranthus rudis (AMATA) is 13%; in test [1] it was 10%; with Kochia scoparia (KCHSC) it was 3%; in test [2], 20%; in test [3], 10%.
As for `COc1c(Cl)ccc(Cl)c1C(=O)Oc1ncn(-c2ccccc2)n1` [Compound A-121], the pest or weed control at 140 g/ha amounted to 75% in the test on Amaranthus rudis (AMATA); 88% in test [1]; 83% in the test with Kochia scoparia (KCHSC); 75% in test [2]; 97% in test [3]. In addition, the pest or weed control at 280 g/ha with Amaranthus rudis (AMATA) worked out at 94%; in test [1], 98%; in the test with Kochia scoparia (KCHSC) it was 96%; in test [2] it was 85%; in test [3], 99%.
Regarding `COc1c(Cl)ccc(Cl)c1C(=O)Oc1noc2ccccc12` [Compound A-122], the pest or weed control at 140 g/ha in the test on Amaranthus rudis (AMATA) was 38%; in test [1], 73%; in the test on Kochia scoparia (KCHSC), 80%; in test [2] it was 28%; in test [3] it was 95%. For the same molecule, the pest or weed control at 280 g/ha with Amaranthus rudis (AMATA) was 50%; in test [1], 97%; in the test with Kochia scoparia (KCHSC) it was 93%; in test [2], 45%; in test [3], 100%.
Turning to `COc1c(Cl)ccc(Cl)c1C(=O)OCc1cc(COC(=O)c2c(Cl)ccc(Cl)c2OC)cc(COC(=O)c2c(Cl)ccc(Cl)c2OC)c1` [Compound A-123], the pest or weed control at 140 g/ha with Amaranthus rudis (AMATA) was determined as 0%; in test [1] it was 5%; in the test on Kochia scoparia (KCHSC), 0%; in test [2], 2%; in test [3], 0%. The pest or weed control at 280 g/ha is 8% in the test with Amaranthus rudis (AMATA); 5% in test [1]; 0% with Kochia scoparia (KCHSC); 3% in test [2]; 0% in test [3].
`COc1c(Cl)ccc(Cl)c1C(=O)NOc1ccccc1` [Compound A-124]: the pest or weed control at 140 g/ha in the test on Amaranthus rudis (AMATA) came to 3%; in test [1], 20%; in the test with Kochia scoparia (KCHSC) it was 0%; in test [2] it was 4%; in test [3] it was 0%. Also, the pest or weed control at 280 g/ha in the test on Amaranthus rudis (AMATA) turned out to be 10%; in test [1], 28%; in the test with Kochia scoparia (KCHSC), 0%; in test [2], 3%; in test [3] it was 3%.
For the molecule `COc1c(Cl)ccc(Cl)c1C(=O)n1ccnc1` [Compound A-126], the pest or weed control at 140 g/ha was found to be 45% with Amaranthus rudis (AMATA); 33% in test [1]; 28% in the test on Kochia scoparia (KCHSC); 33% in test [2]; 15% in test [3]. The pest or weed control at 280 g/ha in the test with Amaranthus rudis (AMATA) is 55%; in test [1], 50%; in the test on Kochia scoparia (KCHSC), 50%; in test [2] it was 35%; in test [3] it was 33%.
Regarding `COc1c(Cl)ccc(Cl)c1C(=O)NN1CCOCC1` [Compound A-127], the pest or weed control at 140 g/ha with Amaranthus rudis (AMATA) came out at 30%; in test [1], 30%; in the test with Kochia scoparia (KCHSC), 3%; in test [2], 20%; in test [3], 18%. The pest or weed control at 280 g/ha in the test with Amaranthus rudis (AMATA) worked out at 35%; in test [1], 63%; with Kochia scoparia (KCHSC), 5%; in test [2], 23%; in test [3], 13%.
As for `CCCCCCNC(=O)c1c(Cl)ccc(Cl)c1OC` [Compound A-128], the pest or weed control at 140 g/ha in the test with Amaranthus rudis (AMATA) was 3%; in test [1] it was 3%; in the test on Kochia scoparia (KCHSC) it was 0%; in test [2] it was 3%; in test [3] (setting [4]) it was 3%. Also, the pest or weed control at 280 g/ha was found to be 8% with Amaranthus rudis (AMATA); 5% in test [1]; 0% in the test on Kochia scoparia (KCHSC); 5% in test [2]; 5% in test [3] (setting [4]).
On to `COc1c(Cl)ccc(Cl)c1C(=O)n1oc2ccccc2c1=O` [Compound A-130], for which the pest or weed control at 140 g/ha is 20% with Amaranthus rudis (AMATA); 40% in test [1]; 45% in the test with Kochia scoparia (KCHSC); 18% in test [2]; 13% in test [3]. For the same molecule, the pest or weed control at 280 g/ha is 28% in the test with Amaranthus rudis (AMATA); 48% in test [1]; 45% in the test with Kochia scoparia (KCHSC); 20% in test [2]; 28% in test [3].
Consider `COc1c(Cl)ccc(Cl)c1C(=O)NNc1ccccc1` [Compound A-131], for which the pest or weed control at 140 g/ha with Amaranthus rudis (AMATA) amounted to 40%; in test [1], 48%; in the test on Kochia scoparia (KCHSC) it was 30%; in test [2], 23%; in test [3] it was 28%. Also, the pest or weed control at 280 g/ha in the test on Amaranthus rudis (AMATA) was found to be 30%; in test [1], 58%; in the test with Kochia scoparia (KCHSC) it was 38%; in test [2], 38%; in test [3] it was 30%.
In the case of `COc1c(Cl)ccc(Cl)c1C(=O)NNc1ccc([N+](=O)[O-])cc1` [Compound A-132], the pest or weed control at 140 g/ha in the test with Amaranthus rudis (AMATA) came to 18%; in test [1], 38%; in the test with Kochia scoparia (KCHSC), 8%; in test [2], 20%; in test [3] it was 23%. Also, the pest or weed control at 280 g/ha in the test on Amaranthus rudis (AMATA) was 18%; in test [1], 33%; with Kochia scoparia (KCHSC) it was 15%; in test [2], 30%; in test [3] it was 8%.
Take `COc1c(Cl)ccc(Cl)c1C(=O)n1nc(C)cc1C` [Compound A-133]: the pest or weed control at 140 g/ha in the test on Amaranthus rudis (AMATA) is 8%; in test [1], 3%; in the test with Kochia scoparia (KCHSC), 0%; in test [2], 10%; in test [3] (setting [4]), 3%. For the same molecule, the pest or weed control at 280 g/ha with Amaranthus rudis (AMATA) was 5%; in test [1] it was 8%; with Kochia scoparia (KCHSC) it was 20%; in test [2] it was 15%; in test [3] (setting [4]) it was 3%.
